Series [1] in a line: Proteolytic stability in Pronase. The conditions noted are these: Streptomyces griseus, Pronase (protease mixture) in PBS, pH 7.4.
Protocol: (§1) In a 600 L Eppendorf tube, we combined 196 L PBS (pH 7.4), 2 L of corresponding peptide
(§2) solution (from 10 mM stock) and 2 L of 0.1 mg/mL PronaseTM. The mixture was vortexed and
(§3) incubated at 37 °C. At indicated time points, 10 L of the solution was sampled, quenched with
(§4) 190 L of 50% aq. CH3CN and maintained at 4 °C until analysis by LCMS.
For series [2] the following is noted: crosslinker bond.
Series [3] relates to rhNODAL-induced phosphorylation of SMAD2 in P19 cells. Briefly: Inhibition of pSMAD assay with P19 cells (western blot of p-SMAD2). The class given is cell-based. The following applies: control inhibitor, concentration not given, rhNODAL 100 ng mL^−1, 1 hour. The source says: 3.6. Processing of Illumina data
The Gzip compressed FASTQ files were downloaded from BaseSpace™ Sequence Hub. The files were converted into tables of DNA sequences and their counts per experiment. Briefly, FASTQ files were parsed based on unique multiplexing barcodes within the reads discarding any reads that contained a low-quality score. Mapping the forward (F) and reverse […] barcoding regions, mapping of F and R priming regions allowing no more than one base substitution each and F-R read alignment allowing no mismatches between F and R reads yielded DNA sequences located between the priming regions. The files with DNA reads, raw counts, and mapped peptide modifications were uploaded to http://48hd.cloud/ server. Each experiment has a unique alphanumeric name (e.g., 20181108-16TSooPA-YW) and unique static URL:
Un- http://48hd.cloud/file/23 https://48hd.cloud/file/2 https://48hd.cloud/file/2 […]
TSL-6 https://48hd.cloud/file/2 https://48hd.cloud/file/2 https://48hd.cloud/file/2 […]
Elution https://48hd.cloud/file/2 https://48hd.cloud/file/2 https://48hd.cloud/file/2 […]
Amplificati https://48hd.cloud/file/2 https://48hd.cloud/file/2 https://48hd.cloud/file/2 […]
3.7. General protocol for protein extraction
All samples in the protein extraction protocol were done on ice. […]
A general note: A western blot detects proteins with antibodies after separation by electrophoresis.

Series [4] has as its system TYK-nu-NODAL cells. Format: cell-based. The following applies: human, 72 h, 10 µM. On the procedure:
3.9. General protocol P19 Cell Culture
P19 Cell were obtained from ATCC cell bank and culture in Alpha Minimum Essential Medium with ribonucleotide and […] with 7.5% bovine calf serum and 2.5% fetal bovine serum at 37 °C with 5% CO2 supplementation.
3.10. Inhibition of pSMAD assay with P19 Cell […]
TYK-nu ovarian cancer cells were obtained from JCRB cell bank and cultured in Eagle’s minimal essential medium with 10 % fetal calf serum (Gibco/Thermo Fisher; Waltham, Massachusetts, USA) at 37 °C with 5% CO2 supplementation. To express the constitutive NODAL, a plasmid vector for human NODAL open reading frame (not including the stop codon) was cloned into pCMV6-Entry vector in frame with a tandem MYCDYK (FLAG) tag (Origene Cat. # RC211302). […]
Cells were seeded in three 96 wells plates with 600 cells/well or 6000 cells/well and grow in full media with G418 at 100 μg/mL O/N. The next day the media was changed to contain 19d peptide (10 µM, 1 µM and 0.1 µM) and without G418. Cells viability was measured every 24 hours with CellTiter-Glo® Luminescent Cell Viability Assay (Promega Cat. # G7572) over the course of 72

Series [5] is described as follows: in vitro. The class given is in vitro ADME. The following applies: mouse, serum. On the procedure: 4. Proteolytic Stability Methods
4.1. Protocol for measurement of proteolytic stability in cell assay: […]
precipitate any proteins.
4.2. Protocol for measurement of proteolytic stability in PronaseTM :
The mixture was vortexed and […]
peptide solution (from 10 mM stock). The mixture was vortexed and incubated at 37 °C. At […]
precipitate the serum protein.

Series [6] has as its system Pronase™. As to the kind of experiment: Proteolytic stability in Pronase. The following applies: 5 hours, 37 °C.
Protocol: as §1, §2, §3, §4

Results on 33 compounds are retold here after PMC8294009, “Genetically-encoded discovery of proteolytically stable bicyclic inhibitors for morphogen NODAL” (Chemical Science, 2021).

Where two headings read alike, the source gives them in different places. *1 amine or outer side, *2 acyl side, *3 side chain or, on linkers, in order; H or OH if unused. Where a SMILES comes first, the peptide text is derived from it. Bridges are numbered along the chain shown (N, C = ends). S(p-C6F4)2 = Fc1c(F)c([*:1])c(F)c(F)c1Sc1c(F)c(F)c([*:2])c(F)c1F; X1 = O=C(C=NOCCCCCCOc1cc(C[*:2])cc(C[*:3])c1)[*:1]; X2 = O=C(C=NOCc1cc(C[*:2])cc(C[*:3])c1)[*:1]; mXylylene = c1cc(C[*:1])cc(C[*:2])c1 Bounds are passed on as bounds.

As to `CC(C)C[C@@H]1NC(=O)[C@H](Cc2ccc(O)cc2)NC(=O)[C@@H](NC(=O)[C@H](CC(=O)O)NC(=O)[C@H](Cc2c[nH]cn2)NC(=O)[C@@H](N)CO)CSCc2cccc(c2)CSC[C@@H](C(N)=O)NC(=O)[C@H](CCC(=O)O)NC1=O` [6g] (H-SHDCYLEC-NH2; linker 4-8 via mXylylene), the share remaining at 5 h, 100 µM in series [1] was under 1%.

Ac-CSWPARCLHQDLC-NH2 + TBMB: the ring closure, isolated yield in series [2] (TBMB) turned out to be 33%.

Regarding H-SWDYRECYLEC-NH2 + TSL-6, the ring closure, isolated yield in series [2] (TSL-6) stood at 42%.

Turning to `CC(C)C[C@@H]1NC(=O)[C@H](Cc2ccc(O)cc2)NC(=O)[C@@H](NC(=O)[C@H](CC(=O)O)NC(=O)[C@H](Cc2c[nH]cn2)NC(=O)[C@@H](N)CO)CSSC[C@@H](C(N)=O)NC(=O)[C@H](CCC(=O)O)NC1=O` [6a] (H-SHDCYLEC-NH2; disulfide 4-8), the amount remaining at 5 h, 100 µM in series [1] is under 1%.

In series [2] (DBMB), H-SSWPARCLHQDLC-NH2 + DBMB had a ring closure, isolated yield of 46%.

Take H-SYCKPFC-NH2 + DBMB: the ring closure, isolated yield in series [2] (DBMB) is 62%.

In series [2] (DBMB), H-SYCKRAHKNC-NH2 + DBMB yielded a ring closure, isolated yield of 32%.

Compound H-SICRFFCGGG-NH2 + PFS displayed a ring closure, isolated yield in series [2] (PFS) of 40%.

With H-SYCKPFC-NH2 + TSL-1, in series [2] (TSL-1), the ring closure, isolated yield was determined as 41%.

Consider `NC(=O)c1ccc(-c2nc(-c3ccc4c(c3)OCO4)c(-c3ccccn3)[nH]2)cc1` [SB431542], for which the “inhibition of rhNODAL-induced phosphorylation of SMAD2” value in series [3] is listed as “inhibited”.

The compound H-SHCVWWDC-NH2 + DBMB had a ring closure, isolated yield in series [2] (DBMB) of 16%.

As to H-SYCKADC-NH2 + DBMB, the ring closure, isolated yield in series [2] (DBMB) is 47%.

For H-SPCAKGMNYC-NH2 + DBMB, the ring closure, isolated yield in series [2] (DBMB) stood at 25%.

As for H-SQCKRAHAEC-NH2 + DBMB, the ring closure, isolated yield in series [2] (DBMB) was 10%.

In turn, H-SWDYRECYLEC-NH2 + DBMB registered a ring closure, isolated yield in series [2] (DBMB) of 12%.

On to `CC(C)C[C@@H]1NC(=O)[C@H](Cc2ccc(O)cc2)NC(=O)[C@@H]2CSCc3cc(cc(c3)CSC[C@@H](C(N)=O)NC(=O)[C@H](CCC(=O)O)NC1=O)CON=CC(=O)N[C@@H](Cc1c[nH]cn1)C(=O)N[C@@H](CC(=O)O)C(=O)N2` [6c] (HDCYLEC-NH2; linker N-3-7 via X2), for which the share remaining at 5 h, 100 µM in series [1] is 83 ± 6.9%.

With H-SPCKGRHHNC-NH2 + DBMB, the ring closure, isolated yield in series [2] (DBMB) amounted to 63%.

In series [2] (DBMB), H-SPCKGPSATC-NH2 + DBMB came in with a ring closure, isolated yield of 10%.

Turning to `CC(C)C[C@@H]1NC(=O)[C@H](Cc2ccc(O)cc2)NC(=O)[C@@H]2CSCc3cc(cc(c3)CSC[C@@H](C(N)=O)NC(=O)[C@H](CCC(=O)O)NC1=O)CON=CC(=O)N[C@@H](Cc1c[nH]c3ccccc13)C(=O)N[C@@H](CC(=O)O)C(=O)N[C@@H](Cc1ccc(O)cc1)C(=O)N[C@@H](CCCNC(=N)N)C(=O)N[C@@H](CCC(=O)O)C(=O)N2` [TSL-1-SWDYRECYLEC] (WDYRECYLEC-NH2; linker N-6-10 via X2), the share remaining at 5 h, 100 µM in series [1] amounted to 82 ± 13%.

Regarding H-STCQGECGGG-NH2 + PFS, the ring closure, isolated yield in series [2] (PFS) turned out to be 31%.

In series [2] (DBMB), H-SHDCYLEC-NH2 + DBMB registered a ring closure, isolated yield of 27%.

Ac-CNTWNPWCPWDAPLCam-NH2 + TBMB: the ring closure, isolated yield in series [2] (TBMB) stood at 38%.

For the compound `C[C@@H]1NC(=O)[C@H](CCCNC(=N)N)NC(=O)[C@H](CCCCN)NC(=O)[C@@H]2CSCc3cc(cc(c3)OCCCCCCON=CC(=O)N[C@@H](Cc3ccc(O)cc3)C(=O)N2)CSC[C@@H](C(N)=O)NC(=O)[C@H](CC(N)=O)NC(=O)[C@H](CCCCN)NC(=O)[C@H](Cc2c[nH]cn2)NC1=O` [19b, TSL-[S]Y[C]KRAHKN[C]] (YCKRAHKNC-NH2; linker N-2-9 via X1), the “viability of TYK-nu-NODAL cells compared to untreated TYK-nu-NODAL cells” value in series [4] was found to be 23%. The compound further returned a fraction remaining at 72 h in series [5] of 53%.

H-SYCPYSGTNC-NH2 + TSL-6 had a ring closure, isolated yield in series [2] (TSL-6) of 32%.

Consider H-STCQGECGGG-NH2 + DBMB, for which, in series [2] (DBMB), the ring closure, isolated yield was 19%.

H-SWDYRECYLEC-NH2 + TSL-1: the ring closure, isolated yield in series [2] (TSL-1) worked out at 54%.

As to H-SHCDYYC-NH2 + DBMB, in series [2] (DBMB), the ring closure, isolated yield worked out at 47%.

Consider `CC[C@H](C)[C@H](NC(=O)[C@@H](N)CO)C(=O)N[C@H]1CSc2c(F)c(F)c(c(F)c2F)Sc2c(F)c(F)c(c(F)c2F)SC[C@@H](C(=O)NCC(=O)NCC(=O)NCC(N)=O)NC(=O)[C@H](Cc2ccccc2)NC(=O)[C@H](Cc2ccccc2)NC(=O)[C@H](CCCNC(=N)N)NC1=O` [PFS-SICRFFCGGG] (H-SICRFFCGGG-NH2; linker 3-7 via S(p-C6F4)2), for which the “stability in Pronase™ (in words)” value in series [6] is “lower stability than bicycle TSL-3-SICRFFCGGG”.

H-SPCKAGTGQC-NH2 + DBMB: the ring closure, isolated yield in series [2] (DBMB) was determined as 12%.

H-SYCKRAHKNC-NH2 + TSL-6 returned a ring closure, isolated yield in series [2] (TSL-6) of 14%.

H-SYCKADC-NH2 + TSL-1: the ring closure, isolated yield in series [2] (TSL-1) was 37%.

In series [2] (DBMB), H-SFCDWYGC-NH2 + DBMB gave a ring closure, isolated yield of 10%.

As for H-SICRFFCGGG-NH2 + DBMB, the ring closure, isolated yield in series [2] (DBMB) amounted to 46%.

Broadly, the fraction remaining is the share of the starting amount still present when the sample was taken.
